Literature values as cited in PubChem BioAssay AID1259409 (Chemical Carcinogenesis Research Information System (CCRIS), 2018).

System: rodent chemically induced tumor inhibition, incidence and multiplicity
Experiment: CCRIS tumor inhibitor studies
Conditions: Dose [Inhibitor]: 0, Route [Inhibitor]: ORAL

SMILES: O=C(O)c1ccc(O)c(O)c1
- tumour outcome (control, treated, inhibition, significance) (Carcinogen: N-BUTYL-N-(4-HYDROXYBUTYL)NITROSAMINE, 3817-11-6, 2000 PPM IN DIET FOR 33 WK BEGINNING 1 WK POST CARCINOGEN TREATMENT (STUDY DURATION: 41 WK), Species: RAT, Strain/Sex: F344/MALE, Target Tissue: Type of Lesion: BLADDER: CARCINOMA, Dose [Carcinogen]: 0.05% IN DRINKING WATER FOR 6 WK, Promoter: NONE USED): 17/22 (77%), 11/27 (41%), 47%, p<0.03
- tumour outcome (control, treated, inhibition, significance) (Carcinogen: N-BUTYL-N-(4-HYDROXYBUTYL)NITROSAMINE, 3817-11-6, 2000 PPM IN DIET FOR 33 WK BEGINNING 1 WK POST CARCINOGEN TREATMENT (STUDY DURATION: 41 WK), Species: RAT, Strain/Sex: F344/MALE, Target Tissue: Type of Lesion: BLADDER: PAPILLOMA, Dose [Carcinogen]: 0.05% IN DRINKING WATER FOR 6 WK, Promoter: NONE USED): 1/22 (5%), 1/27 (4%), 20%, not significant
- tumour outcome (control, treated, inhibition, significance) (Carcinogen: N-METHYL-N-NITROSOUREA, 684-93-5, 1000 PPM IN DIET FOR 14 WK BEGINNING 1 WK PRIOR TO CARCINOGEN TREATMENT (STUDY DURATION: 32 WK), Species: RAT, Strain/Sex: F344/MALE, Target Tissue: Type of Lesion: GLANDULAR STOMACH: ADENOCARCINOMA, Dose [Carcinogen]: 400 PPM IN DRINKING WATER FOR 12 WK, Promoter: NONE USED): 59%, 18%, 69%, p<0.05
- tumour outcome (control, treated, inhibition, significance) (Carcinogen: N-METHYL-N-NITROSOUREA, 684-93-5, 1000 PPM IN DIET FOR 14 WK BEGINNING 1 WK PRIOR TO CARCINOGEN TREATMENT (STUDY DURATION: 36 WK), Species: RAT, Strain/Sex: F344/MALE, Target Tissue: Type of Lesion: GLANDULAR STOMACH: ADENOCARCINOMA, Dose [Carcinogen]: 400 PPM IN DRINKING WATER FOR 12 WK, Promoter: NONE USED): 13/22 (59%), 4/22 (18%), 69%, p<0.05
- tumour outcome (control, treated, inhibition, significance) (Carcinogen: N-NITROSOBIS(2-OXOPROPYL)AMINE, 60599-38-4, 500 PPM IN DIET FOR 49 WK BEGINNING 1 WK POST CARCINOGEN LAST TREATMENT (STUDY DURATION: 51 WK), Species: HAMSTER, Strain/Sex: SYRIAN/FEMALE, Target Tissue: Type of Lesion: KIDNEY: ADENOCARCINOMA, Dose [Carcinogen]: 20 MG/KG BW 1/WK FOR 2 WK): 7%, 7%, 0%, not significant
- tumour outcome (control, treated, inhibition, significance) (Carcinogen: N-NITROSOBIS(2-OXOPROPYL)AMINE, 60599-38-4, 500 PPM IN DIET FOR 49 WK BEGINNING 1 WK POST CARCINOGEN LAST TREATMENT (STUDY DURATION: 51 WK), Species: HAMSTER, Strain/Sex: SYRIAN/FEMALE, Target Tissue: Type of Lesion: LIVER: CHOLANGIOCELLULAR CARCINOMA, Dose [Carcinogen]: 20 MG/KG BW 1/WK FOR 2 WK): 65.5%, 59%, 12%, not significant
- tumour outcome (control, treated, inhibition, significance) (Carcinogen: N-NITROSOBIS(2-OXOPROPYL)AMINE, 60599-38-4, 500 PPM IN DIET FOR 49 WK BEGINNING 1 WK POST CARCINOGEN LAST TREATMENT (STUDY DURATION: 51 WK), Species: HAMSTER, Strain/Sex: SYRIAN/FEMALE, Target Tissue: Type of Lesion: LIVER: HEMANGIOMA, Dose [Carcinogen]: 20 MG/KG BW 1/WK FOR 2 WK): 3%, 0%, 100%, not significant
- tumour outcome (control, treated, inhibition, significance) (Carcinogen: N-NITROSOBIS(2-OXOPROPYL)AMINE, 60599-38-4, 500 PPM IN DIET FOR 49 WK BEGINNING 1 WK POST CARCINOGEN LAST TREATMENT (STUDY DURATION: 51 WK), Species: HAMSTER, Strain/Sex: SYRIAN/FEMALE, Target Tissue: Type of Lesion: LIVER: HEPATOCELLULAR ADENOMA, Dose [Carcinogen]: 20 MG/KG BW 1/WK FOR 2 WK): 72%, 79%, -9%, not significant
- tumour outcome (control, treated, inhibition, significance) (Carcinogen: N-NITROSOBIS(2-OXOPROPYL)AMINE, 60599-38-4, 500 PPM IN DIET FOR 49 WK BEGINNING 1 WK POST CARCINOGEN LAST TREATMENT (STUDY DURATION: 51 WK), Species: HAMSTER, Strain/Sex: SYRIAN/FEMALE, Target Tissue: Type of Lesion: LIVER: HEPATOCELLULAR CARCINOMA, Dose [Carcinogen]: 20 MG/KG BW 1/WK FOR 2 WK): 17%, 14%, 20%, not significant
- tumour outcome (control, treated, inhibition, significance) (Carcinogen: N-NITROSOBIS(2-OXOPROPYL)AMINE, 60599-38-4, 500 PPM IN DIET FOR 49 WK BEGINNING 1 WK POST CARCINOGEN LAST TREATMENT (STUDY DURATION: 51 WK), Species: HAMSTER, Strain/Sex: SYRIAN/FEMALE, Target Tissue: Type of Lesion: LUNG: ADENOCARCINOMA, Dose [Carcinogen]: 20 MG/KG BW 1/WK FOR 2 WK): 33%, 33%, 0%, not significant
- tumour outcome (control, treated, inhibition, significance) (Carcinogen: N-NITROSOBIS(2-OXOPROPYL)AMINE, 60599-38-4, 500 PPM IN DIET FOR 49 WK BEGINNING 1 WK POST CARCINOGEN LAST TREATMENT (STUDY DURATION: 51 WK), Species: HAMSTER, Strain/Sex: SYRIAN/FEMALE, Target Tissue: Type of Lesion: LUNG: ADENOMA, Dose [Carcinogen]: 20 MG/KG BW 1/WK FOR 2 WK): 83%, 87%, -4%, not significant
- tumour outcome (control, treated, inhibition, significance) (Carcinogen: N-NITROSOBIS(2-OXOPROPYL)AMINE, 60599-38-4, 500 PPM IN DIET FOR 49 WK BEGINNING 1 WK POST CARCINOGEN LAST TREATMENT (STUDY DURATION: 51 WK), Species: HAMSTER, Strain/Sex: SYRIAN/FEMALE, Target Tissue: Type of Lesion: OVARY: CYSTADENOMA, Dose [Carcinogen]: 20 MG/KG BW 1/WK FOR 2 WK): 3%, 3%, 0%, not significant
- tumour outcome (control, treated, inhibition, significance) (Carcinogen: N-NITROSOBIS(2-OXOPROPYL)AMINE, 60599-38-4, 500 PPM IN DIET FOR 49 WK BEGINNING 1 WK POST CARCINOGEN LAST TREATMENT (STUDY DURATION: 51 WK), Species: HAMSTER, Strain/Sex: SYRIAN/FEMALE, Target Tissue: Type of Lesion: PANCREAS: ADENOCARCINOMA, Dose [Carcinogen]: 20 MG/KG BW 1/WK FOR 2 WK): 86%, 90%, -4%, not significant
- tumour outcome (control, treated, inhibition, significance) (Carcinogen: N-NITROSOBIS(2-OXOPROPYL)AMINE, 60599-38-4, 1000 PPM IN DIET FOR 49 WK BEGINNING 1 WK POST CARCINOGEN LAST TREATMENT (STUDY DURATION: 51 WK), Species: HAMSTER, Strain/Sex: SYRIAN/FEMALE, Target Tissue: Type of Lesion: LIVER: CHOLANGIOCELLULAR ADENOMA, Dose [Carcinogen]: 20 MG/KG BW 1/WK FOR 2 WK): 31%, 34%, -11%, not significant
- tumour outcome (control, treated, inhibition, significance) (Carcinogen: N-NITROSOBIS(2-OXOPROPYL)AMINE, 60599-38-4, 1000 PPM IN DIET FOR 49 WK BEGINNING 1 WK POST CARCINOGEN LAST TREATMENT (STUDY DURATION: 51 WK), Species: HAMSTER, Strain/Sex: SYRIAN/FEMALE, Target Tissue: Type of Lesion: LIVER: CHOLANGIOCELLULAR CARCINOMA, Dose [Carcinogen]: 20 MG/KG BW 1/WK FOR 2 WK): 65%, 55%, 16%, not significant
- tumour outcome (control, treated, inhibition, significance) (Carcinogen: N-NITROSOBIS(2-OXOPROPYL)AMINE, 60599-38-4, 1000 PPM IN DIET FOR 49 WK BEGINNING 1 WK POST CARCINOGEN LAST TREATMENT (STUDY DURATION: 51 WK), Species: HAMSTER, Strain/Sex: SYRIAN/FEMALE, Target Tissue: Type of Lesion: LIVER: HEPATOCELLULAR ADENOMA, Dose [Carcinogen]: 20 MG/KG BW 1/WK FOR 2 WK): 72% 59%, 19%, not significant
- tumour outcome (control, treated, inhibition, significance) (Carcinogen: N-NITROSOBIS(2-OXOPROPYL)AMINE, 60599-38-4, 1000 PPM IN DIET FOR 49 WK BEGINNING 1 WK POST CARCINOGEN LAST TREATMENT (STUDY DURATION: 51 WK), Species: HAMSTER, Strain/Sex: SYRIAN/FEMALE, Target Tissue: Type of Lesion: LIVER: HEPATOCELLULAR CARCINOMA, Dose [Carcinogen]: 20 MG/KG BW 1/WK FOR 2 WK): 17%, 21%, -20%, not significant
- tumour outcome (control, treated, inhibition, significance) (Carcinogen: N-NITROSOBIS(2-OXOPROPYL)AMINE, 60599-38-4, 1000 PPM IN DIET FOR 49 WK BEGINNING 1 WK POST CARCINOGEN LAST TREATMENT (STUDY DURATION: 51 WK), Species: HAMSTER, Strain/Sex: SYRIAN/FEMALE, Target Tissue: Type of Lesion: LUNG: ADENOCARCINOMA, Dose [Carcinogen]: 20 MG/KG BW 1/WK FOR 2 WK): 33%, 39%, -18%, not significant
- tumour outcome (control, treated, inhibition, significance) (Carcinogen: N-NITROSOBIS(2-OXOPROPYL)AMINE, 60599-38-4, 1000 PPM IN DIET FOR 49 WK BEGINNING 1 WK POST CARCINOGEN LAST TREATMENT (STUDY DURATION: 51 WK), Species: HAMSTER, Strain/Sex: SYRIAN/FEMALE, Target Tissue: Type of Lesion: LUNG: ADENOMA, Dose [Carcinogen]: 20 MG/KG BW 1/WK FOR 2 WK): 83%, 89%, -7%, not significant
- tumour outcome (control, treated, inhibition, significance) (Carcinogen: N-NITROSOBIS(2-OXOPROPYL)AMINE, 60599-38-4, 1000 PPM IN DIET FOR 49 WK BEGINNING 1 WK POST CARCINOGEN LAST TREATMENT (STUDY DURATION: 51 WK), Species: HAMSTER, Strain/Sex: SYRIAN/FEMALE, Target Tissue: Type of Lesion: PANCREAS: ADENOCARCINOMA, Dose [Carcinogen]: 20 MG/KG BW 1/WK FOR 2 WK): 86%, 90%, -4%, not significant
